Measurements: the supplement of paper PMC12317010
Counter-ions that a name gives are not always drawn.

Assay: collision cross section in nitrogen (drift tube, single-field); higher = larger gas-phase ion size
[1] = ion type: [M-H], ion source: ESI, ion mode: Negative
[2] = ion type: [M+H], ion source: APCI, ion mode: Positive
[3] = ion type: [M+H], ion source: ESI, ion mode: Positive
[4] = ion type: [M+Na], ion source: ESI, ion mode: Positive
[5] = ion type: [M+], ion source: APCI, ion mode: Positive
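Further: chemical standards at 10 µM analysed by drift tube IMS-QTOF MS in about 3.95 torr nitrogen, mean of duplicate injections differing ≤1%, mass error below 10 ppm.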

collision cross section in nitrogen [1] [Å²]	collision cross section in nitrogen [2] [Å²]	collision cross section in nitrogen [3] [Å²]	Compound	also measured
		138.4	Cc1c(Cl)c(=O)oc2cc(O)ccc12 [3-Chloro-7-hydroxy-4-methyl-2-benzopyrone]	
127.5			CCc1cccc(O)c1 [3-Ethylphenol]	
119.9	121.7	122.1	OCc1ncccc1O [3-Hydroxy-2-(hydroxymethyl)pyridine hydrochloride]	
	155.5	155.6	CCOc1ccc(NC(=O)CC(C)O)cc1 (stereo not given) [3-Hydroxy-4-butyrophenetidide]	collision cross section in nitrogen [4]: 169.5 Å²
142.4			Oc1ccc2c(c1)-c1ccccc1C2 [3-Hydroxyfluorene]	
122.5			Oc1cccc(I)c1 [3-Iodophenol]	
130.1			COc1cc(C)cc(O)c1 [3-Methoxy-5-methylphenol]	
144.4		142.9	CC1=NN(c2ccc(C)cc2)C(=O)C1 [3-Methyl-1-p-tolyl-5-pyrazolone]	collision cross section in nitrogen [4]: 156.9 Å²
	130.4	131.2	CC1COc2ccccc2N1 (stereo not given) [3-Methyl-3,4-dihydro-2H-1,4-benzoxazine]	
117.9		119.1	CC1=NNC(=O)C1 [3-Methyl-5-pyrazolone]	
155.6			O=C(O)c1cccc(Oc2ccccc2)c1 [3-Phenoxybenzoic acid]	
114.6		117.3	Oc1cccnc1 [3-Pyridinol]	
162.7			CCCCCCCCCCCSCC(=O)O [3-Thiatetradecanoic acid]	
174.5			CC(C)(C)c1cc(CCC(=O)NN)cc(C(C)(C)C)c1O [3-[3,5-DI(tert-butyl)-4-hydroxyphenyl]propanohydrazide]	collision cross section in nitrogen [4]: 179.3 Å²
	138.5	139.3	CCN(CCC#N)c1ccccc1 [3-[Ethyl(phenyl)amino]propanenitrile]	
	130.8	131.9	CN(C)CCCNCCC#N [3-{[3-(Dimethylamino)propyl]amino}propanenitrile]	
161.1		160.8	COc1cc(NC(=O)CC(C)=O)c(OC)cc1Cl [4'-Chloro-2',5'-dimethoxyacetoacetanilide]	collision cross section in nitrogen [4]: 168.5 Å²; collision cross section in nitrogen [5]: 156.7 Å²
	151.8	152.2	C1CN(CCOCCN2CCOCC2)CCO1 [4,4'-(Oxydiethylene)bis(morpholine)]	collision cross section in nitrogen [4]: 156.9 Å²
221	218.8	219.9	CCCCCCCCc1ccc(Nc2ccc(CCCCCCCC)cc2)cc1 [4,4'-Dioctyldiphenylamine]	collision cross section in nitrogen [5]: 219.4 Å²
	146.1	145.7	c1cc(CCCc2ccncc2)ccn1 [4,4'-Propane-1,3-diyldipyridine]	
		182.5	C=CCc1cc(S(=O)(=O)c2ccc(O)c(CC=C)c2)ccc1O [4,4'-Sulfonylbis[2-(prop-2-en-1-yl)phenol]]	collision cross section in nitrogen [4]: 197.2 Å²
177.5			CC(CCC(=O)O)(c1ccc(O)cc1)c1ccc(O)cc1 [4,4-Bis(4-hydroxyphenyl)valeric acid]	

Further lines, the molecule ahead of its results:

Compound	collision cross section in nitrogen [1] [Å²]	collision cross section in nitrogen [2] [Å²]	collision cross section in nitrogen [3] [Å²]	also measured
O=[N+]([O-])c1ccc(O)cc1C(F)(F)F [3-(Trifluoromethyl)-4-nitrophenol]	128.7			
O=C(O)c1cccc(C(F)(F)F)c1 [3-(Trifluoromethyl)benzoic acid]	132.4			
Oc1cccc(C(F)(F)F)c1 [3-(Trifluoromethyl)phenol]	121.3			
CC(=O)c1cccnc1 [3-Acetylpyridine]		123.6		
Nc1cc(C(=O)O)ccc1Cl [3-Amino-4-chlorobenzoic acid]	135.4			
Oc1ccc(-c2ccccc2)cc1Cl [3-Chloro[1,1′-biphenyl]-4-ol]	143.8			
CCOc1cc(C=O)ccc1O [3-Ethoxy-4-hydroxybenzaldehyde]	133.6			
O=C(Nc1ccccc1)c1cc2ccccc2cc1O [3-Hydroxy-2-naphthanilide]	160.7	160.9	160.7	
O=C(O)c1cc2ccccc2cc1O [3-Hydroxy-2-naphthoic acid]	135.6			
COc1ccccc1NC(=O)c1cc2ccccc2cc1O [3-Hydroxy-2-naphthoic o-anisidide]	168.9	167.3	167.5	collision cross section in nitrogen [4]: 181.8 Å²
O=C(Nc1cccc([N+](=O)[O-])c1)c1cc2ccccc2cc1O [3-Hydroxy-N-(3-nitrophenyl)naphthalene-2-carboxamide]	170.2			
CC(C)c1cccc(O)c1 [3-Isopropylphenol]	132.9			
Cc1cc(N)n(-c2ccccc2)n1 [3-Methyl-1-phenyl-1H-pyrazol-5-amine]	136.1	136.3	136.5	
Cc1cccc(Nc2ccccc2)c1 [3-Methyl-N-phenylaniline]		143.2	143.6	collision cross section in nitrogen [5]: 139.3 Å²
Cc1c[nH]c2ccccc12 [3-Methylindole]	125.2			
O=C(O)c1cccc([N+](=O)[O-])c1 [3-Nitrobenzoic acid]	131.2			
CC(=O)CC(=O)Nc1ccc2[nH]c(=O)[nH]c2c1 [3-Oxo-N-(2-oxo-2,3-dihydro-1H-benzimidazol-5-yl)butanamide]	154.4			
Oc1cccc(-c2ccccc2)c1 [3-Phenylphenol]	140			
Nc1cccnc1 [3-Pyridinamine]		115	115.2	
CC(C)(C)c1cccc(O)c1 [3-tert-Butylphenol]	136.9			

Compound	collision cross section in nitrogen [1] [Å²]	collision cross section in nitrogen [2] [Å²]	collision cross section in nitrogen [3] [Å²]	also measured
CC(=O)Nc1ccc(C(=O)CCl)cc1 [4'-(Chloroacetyl)acetanilide]	144.9			
CC(=O)CC(=O)Nc1ccc(Cl)cc1 [4'-Chloroacetoacetanilide]	143.8			
Nc1ccc(-c2ccc(F)cc2)cc1 [4'-Fluoro-4-aminodiphenyl]			156.4	collision cross section in nitrogen [5]: 136.9 Å²
CC(c1ccc(O)cc1)(c1ccc(O)cc1)c1ccc(O)cc1 [4,4',4''-Ethane-1,1,1-triyltriphenol]	184.3			
CC(c1ccccc1)(c1ccc(O)cc1)c1ccc(O)cc1 [4,4'-(1-Phenylethylidene)bisphenol]	180			
N#Cc1ccc(C(c2ccc(C#N)cc2)n2cncn2)cc1 [4,4'-(1H-1,2,4-Triazol-1-ylmethylene)dibenzonitrile]	166.5			
CC(C)CC(C)(c1ccc(O)cc1)c1ccc(O)cc1 [4,4'-(4-Methylpentane-2,2-diyl)diphenol]	175.3			
Oc1ccc(C2(c3ccc(O)cc3)c3ccccc3-c3ccccc32)cc1 [4,4'-(9H-Fluorene-9,9-diyl)diphenol]	194.8			
Nc1ccc(Cc2ccc(N)cc2)cc1 [4,4'-Diaminobiphenyl methane]		163.3	163.1	
CC(C)(C)c1cc(Cc2cc(C(C)(C)C)c(O)c(C(C)(C)C)c2)cc(C(C)(C)C)c1O [4,4'-Methylenebis(2,6-di-t-butylphenol)]	221.2			
c1cc(N(CC2CO2)CC2CO2)ccc1Cc1ccc(N(CC2CO2)CC2CO2)cc1 (stereo not given) [4,4'-Methylenebis(N,N-diglycidylaniline)]		215.7	215.2	collision cross section in nitrogen [4]: 199.7 Å²
CN(C)c1ccc(Cc2ccc(N(C)C)cc2)cc1 [4,4'-Methylenebis(N,N-dimethylaniline)]		175.3	174.8	
Cc1cc(Cc2ccc(N)c(C)c2)ccc1N [4,4'-Methylenebis(o-toluidine)]		179.1	171.2	
Nc1ccc(Oc2ccc(N)cc2)cc1 [4,4'-Oxydianiline]		167.4	160.7	collision cross section in nitrogen [5]: 146.6 Å²
Cc1cc(C(C)(C)c2cc(C)c(O)c(C)c2)cc(C)c1O [4,4'-Propane-2,2-diylbis(2,6-dimethylphenol)]	182.9			
Nc1ccc(Sc2ccc(N)cc2)cc1 [4,4'-Thiodianiline]		164.9	164.4	collision cross section in nitrogen [5]: 148.1 Å²
Nc1ccc(-c2ccc(N)cc2)cc1 [4,4′-Diamino-1,1′-biphenyl]		156.9	157	collision cross section in nitrogen [5]: 139.4 Å²
CC(C)(C)CC(C)(C)c1ccc(O)cc1 [4-(1,1,3,3-Tetramethylbutyl)phenol]	157.1			
CC(C)(C)c1ccc(O)cc1 [4-(1,1-Dimethylethyl)phenol]	139.5			
